Reference: patent EP1209147A1, “CARBOXYLIC ACID DERIVATIVES AND ADHESION MOLECULE INHIBITORS CONTAINING THE SAME AS THE ACTIVE INGREDIENT” (TORAY INDUSTRIES, INC., priority 1999, dated 2001)
Where two headings read alike, the source gives them in different places.

Legend:
[1] = biological target: VLA-4-IgG chimeric protein (Homo sapiens, UniProt P05556+P13612); experiment: Inhibition of binding between CS-1 peptide and VLA-4-IgG chimeric protein
Experimental: The adhesion-inhibition activity of the compound of the present invention against VLA-4 may be examined by using an adhesion assay system in which the adhesion between VLA-4-expressing cells such as Ramos cells and Jurkat cells, and fibronectin or a fragment thereof, e.g., a peptide containing CS-1 sequence (Gly Pro Glu Ile Leu Asp Val Pro Ser Thr) (hereinafter referred to as "CS-1 peptide") immobilized on an immunoplate is measured. Alternatively, a binding assay system in which the binding of the VLA-4 protein to the fibronectin or a fragment thereof such as CS-1 peptide immobilized on an immunoplate is measured may be employed. In the present invention, the inhibition assay of the compound is preferably measured by a binding assay system which measures the binding between a chimeric protein of VLA-4 and immunoglobulin (VLA-4-IgG chimeric protein) and CS-1 peptide (Japanese patent application No. H9-234544), although the method of measuring the inhibition activity is not restricted to this method. The term "VLA-4-IgG chimeric protein" herein means the heterodimer composite molecule in which a chimeric protein between α4 of VLA-4 and immunoglobulin (hereinafter referred to as "VLAα4·IgG chimeric protein), and a chimeric protein between β1 of VLA-4 and immunoglobulin (hereinafter referred to as "VLAβ1·IgG chimeric protein) are associated. As the immunoglobulin, although heavy chain or light chain of IgG, IgM or the like may be employed, in the present invention, IgG1 heavy chain is used. When testing the inhibition activity of the compound, it is preferred to preliminarily mix the VLA-4-IgG chimeric protein and the test compound.
Effects of Compounds for Inhibition of Binding Between CS-1 Peptide and VLA-4-IgG
A conjugate between a peptide (Gys Leu His Gly Pro Glu Ile Leu Asp Val Pro Ser Thr) containing CS-1 sequence and rabbit IgG (Sigma) was prepared by the reported method (Humphries, M.J. et al. J. Biol.Chem., 262, 6886-6892 (1987)). The obtained conjugate was diluted with phosphate buffer (hereinafter referred to as "PBS(-)", NISSUI) and the resulting solution was placed in wells of a 96-well immunoplate (NUNC) in an amount of 100 µl/well, followed by leaving the solution to stand at 4°C for 16 hours to immobilize the conjugate.
Then each well was washed twice with PBS(-), and a PBS solution containing 1% BSA heat-treated at 80°C for 10 minutes was placed in each well in an amount of 300 µl/well. The immunoplate was left to stand at 4°C for 3 hours, and then the solution in each well was removed by aspiration.
After preliminarily allowing each compound to react with VLA-4-IgG chimeric protein (100 µl) at room temperature for 20 minutes, the resulting solution was allowed to react with CS-1 peptide in each well at 30°C for 3 hours. Thereafter, non-bound VLA-4-IgG chimeric protein was removed by aspiration and each well was washed twice with 0.1% BSA-containing TBS buffer (150 mM NaCl,25 mM Tris-HCI, 1 mM MnCl2 pH 7.4). To the bound VLA-4-IgG chimeric protein, biotin-labeled anti-human IgG antibody (Vector) as an primary antibody was added, and then avidin-labeled horse radish peroxidase (Sigma) as a secondary antibody was added, and the reaction was allowed to occur. After the reaction, o-phenylenediamine as a substrate was added to color the solution, and the absorbance at 490 nm was measured. From the absorbance, the binding-inhibition activity of each test compound was determined.

Auricular Edema Model = experiment: Auricular edema model (IgE anti-DNP passive sensitization, DNFB induction); assay type: in vivo, BLAB/c mouse; settings: at a dose of not more than 150 mg/kg; topically or systemically, totally 3 times
Experimental: To each BLAB/c mouse (female, 7 weeks old, JAPAN CHARLES RIVER), mouse IgE anti-DNP antibody (5 mg/kg, SEIKAGAKU CORPORATION) was intravenously administered to passively sensitize the mouse. Twenty four hours later, 20 µl of 0.38% 2,4- dinitrofluorobenzene (DNFB, Aldrich) dissolved in acetone:olive oil (4:1) was applied to the auricle of the sensitized mouse to induce inflammation. The thickness of the auricle was measured until 24 hours after the induction with Digimatic Indicator (Mitutoyo) and the ear swelling rate was calculated according to the following equation: Ear Swelling Rate (%) = (A - B)/B x 100 [formula] • A: Thickness of right auricle at 24 hours after induction • B: Thickness of right auricle before induction
Twenty four hours after the induction, the auricle was cut off and fixed with formalin. After the fixation, continuous sections of the auricle were prepared and stained by Luna staining. The number of eosinophils in each section was counted and the total of them was defined as the number of eosinophils accumulated in the auricle.
Compound No. 140 used as the test compound was dissolved in physiological saline and the solution was intravenously administered totally 3 times, i.e., at the time of sensitization, at 8 hours and 24 hours after sensitization, at a dose of 400 mg/kg per each time. Further, to examine the effect of the compound when applied to the auricle, the compound was dissolved in ethanol, and the solution was applied to the auricle totally twice, i.e., at 8 hours after sensitization and at 1 hour before the induction, at a dose of 0.3 mg/ear. To the background group and the control group, physiological saline was intravenously administered and ethanol was applied, respectively. The experiment was carried out using 4 to 6 mice in each group. The results are shown in terms of mean ± standard error.
Twenty four hours after the induction, the auricle was cut off and fixed with formalin. After the fixation, continuous sections of the auricle were prepared and stained by Luna staining. The number of eosinophils in each section was counted. Compound No. 143 used as the test compound was dissolved in physiological saline and the solution was topically or systemically administered totally 3 times, i.e., at the time of sensitization, at 8 hours and 24 hours after sensitization. The experiment was carried out using 4 to 6 mice in each group. The results are shown in terms of mean ± standard error.

Mouse Asthma Model = experiment: Mouse asthma model (OVA/Alum sensitization, OVA inhalation, airway anaphylaxis and BALF eosinophils); assay type: in vivo, BLAB/c mouse; settings: at a dose of not more than 150 mg/kg, topically or systemically
Experimental: A mixed solution containing aluminum hydroxide gel (Alum) on which ovalbumin (hereinafter "OVA") was adsorbed (20 ∝g OVA/2mg Alum/200 ∝l physiological saline) was intraperitoneally administered to each BLAB/c mouse (female, 7 weeks old, JAPAN CHARLES RIVER) at a dose of 200 ∝l ([…]) per time on DAY-1 and DAY-14 to sensitize the mouse. Then each mice was made to aspire 2% OVA dissolved in physiological saline on DAY-28, 29 and 30 to induce inflammation. Compound Nos. 143 and 236 used as the test compounds were dissolved in physiological saline and each solution was topically or systemically administered at 30 minutes before induction by OVA, and twice a day after induction.
On DAY-31, development of airway anaphylaxis was measured using a non-restrictive chamber (BUXCO). Then the bronchus of each mouse was incised and the bronchus and alveoli were washed (BAL) with 0.7 ml of physiological saline. After the washing, the washing fluid (BALF) of the bronchus and alveoli was recovered and centrifuged. The leukocytes contained in the BALF were subjected to site spin to prepare a smear specimen. After staining the specimen by May-Giemsa staining method, the leukocytes were grouped and counted under microscope to determine the number of eosinophils. The experiment was carried out using 6 to 8 mice in each group. The results are shown in terms of mean ± standard error.

[2] = binding of VLA-4-IgG chimeric protein to immobilized CS-1 peptide, compound preincubated 20 minutes, read-out: Inhibition Activity(IC50 : nM)

VLA-4-IgG chimeric protein, sequence (P13612 with tags, fused parts or gaps limits assumed): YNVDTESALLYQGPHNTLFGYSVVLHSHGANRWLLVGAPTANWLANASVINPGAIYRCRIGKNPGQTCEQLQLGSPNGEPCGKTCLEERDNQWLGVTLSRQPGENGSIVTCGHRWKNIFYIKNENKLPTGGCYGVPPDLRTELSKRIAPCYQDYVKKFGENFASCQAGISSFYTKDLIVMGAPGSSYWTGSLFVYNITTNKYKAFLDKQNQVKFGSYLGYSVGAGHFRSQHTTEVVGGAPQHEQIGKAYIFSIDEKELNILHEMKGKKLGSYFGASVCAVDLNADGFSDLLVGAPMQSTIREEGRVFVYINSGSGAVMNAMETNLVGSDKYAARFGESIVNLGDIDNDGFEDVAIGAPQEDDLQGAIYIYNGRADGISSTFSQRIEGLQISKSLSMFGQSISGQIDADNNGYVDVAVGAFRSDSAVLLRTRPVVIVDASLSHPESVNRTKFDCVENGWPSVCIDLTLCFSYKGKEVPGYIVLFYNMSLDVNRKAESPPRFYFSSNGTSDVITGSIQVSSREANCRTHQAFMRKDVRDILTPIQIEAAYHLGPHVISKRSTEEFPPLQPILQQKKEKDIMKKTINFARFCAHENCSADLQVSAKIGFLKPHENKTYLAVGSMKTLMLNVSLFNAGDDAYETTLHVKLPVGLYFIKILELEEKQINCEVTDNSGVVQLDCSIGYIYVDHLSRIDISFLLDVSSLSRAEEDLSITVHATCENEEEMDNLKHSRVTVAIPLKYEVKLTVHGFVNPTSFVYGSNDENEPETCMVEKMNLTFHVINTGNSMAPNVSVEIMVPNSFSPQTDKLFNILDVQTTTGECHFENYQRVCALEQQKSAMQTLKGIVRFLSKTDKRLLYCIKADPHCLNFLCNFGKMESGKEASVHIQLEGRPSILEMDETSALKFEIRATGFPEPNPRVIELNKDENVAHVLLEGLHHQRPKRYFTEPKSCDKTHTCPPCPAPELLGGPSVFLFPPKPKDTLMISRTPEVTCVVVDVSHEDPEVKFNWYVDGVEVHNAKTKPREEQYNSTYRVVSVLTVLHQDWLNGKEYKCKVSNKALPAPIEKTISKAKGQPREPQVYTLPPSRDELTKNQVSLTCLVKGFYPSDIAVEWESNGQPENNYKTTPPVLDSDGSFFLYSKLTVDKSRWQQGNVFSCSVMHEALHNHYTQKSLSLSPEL
VLA-4-IgG chimeric protein, sequence (P05556 with tags, fused parts or gaps limits assumed): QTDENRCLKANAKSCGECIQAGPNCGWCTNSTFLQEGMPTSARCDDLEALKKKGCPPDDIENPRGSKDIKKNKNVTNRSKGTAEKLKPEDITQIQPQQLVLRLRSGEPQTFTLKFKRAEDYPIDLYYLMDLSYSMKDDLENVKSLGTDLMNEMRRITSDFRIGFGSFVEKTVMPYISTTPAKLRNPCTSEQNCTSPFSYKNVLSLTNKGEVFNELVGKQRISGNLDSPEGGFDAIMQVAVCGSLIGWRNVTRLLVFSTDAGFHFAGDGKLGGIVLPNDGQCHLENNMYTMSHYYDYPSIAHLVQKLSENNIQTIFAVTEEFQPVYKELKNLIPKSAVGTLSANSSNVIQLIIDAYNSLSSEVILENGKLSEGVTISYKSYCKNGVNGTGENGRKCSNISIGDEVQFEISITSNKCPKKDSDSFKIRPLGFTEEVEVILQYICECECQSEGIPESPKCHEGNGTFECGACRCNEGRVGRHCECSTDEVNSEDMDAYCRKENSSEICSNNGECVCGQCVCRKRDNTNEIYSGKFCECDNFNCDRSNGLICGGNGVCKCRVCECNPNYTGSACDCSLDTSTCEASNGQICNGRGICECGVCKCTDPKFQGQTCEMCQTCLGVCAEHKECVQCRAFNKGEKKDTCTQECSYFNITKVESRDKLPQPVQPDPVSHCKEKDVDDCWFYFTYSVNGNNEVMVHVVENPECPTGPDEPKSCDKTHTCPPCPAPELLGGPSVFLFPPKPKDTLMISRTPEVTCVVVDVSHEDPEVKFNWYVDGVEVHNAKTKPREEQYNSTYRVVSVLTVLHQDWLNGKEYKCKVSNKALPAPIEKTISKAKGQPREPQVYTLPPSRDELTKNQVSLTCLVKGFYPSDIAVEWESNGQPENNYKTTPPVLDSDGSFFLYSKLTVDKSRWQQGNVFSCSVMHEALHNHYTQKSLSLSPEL

Row | IC50 [1, 2] [nM] | Compound | IC50 [1] [nM] | also measured
1 | 120 | 3-((2(R)-((1-acetyl-3(R,S)-(4-hydroxyphenyl)pyrrolidin-2(R,S)-yl)carbonylamino)-2(R)-carbonylethyl)disulfanyl)-2(R)-(3,3-dimethylbutanoylamino)propionic acid [Example 74] | – | –
2 | 160 | CC(C)CC(C(=O)NC(Cc1ccc(CCC(=O)O)cc1)C(=O)O)c1ccc(O)cc1 (single isomer, unassigned) [Example 120, 3-(4-(2-carboxyethyl)phenyl)-2-(2-(4-hydroxyphenyl)-4-methylpentanoylamino)propionic acid] | – | –
3 | – | CC(C)CC(C(=O)N[C@@H](CCSC[C@H](NC(=O)C(CC(C)C)c1ccc(O)cc1)C(=O)O)C(=O)O)c1ccc(O)cc1 (stereo partly drawn) [Example 8, 4-(2(R)-carboxy-2(R)-(2(R,S)-(4-hydroxyphenyl)-4-methylpentanoylamino)ethylthio)-2(S)-(2(R,S)-(4-hydroxyphenyl)-4-methylpentanoylamino) butyric acid] | 200 | –
4 | – | CC(C)CC(C(=O)N[C@@H](CCSC[C@H](NC(=O)CC(C)(C)C)C(=O)O)C(=O)O)c1ccc(O)cc1 (stereo partly drawn) [Example 14, 4-(2(R)-carboxy-2(R)-(3,3-dimethylbutanoylamino)ethylthio)-2(S)-(2(R,S)-(4-hydroxyphenyl)-4-methylpentanoylamino) butyric acid] | 500 | –
5 | – | CC(C)CC(C(=O)NCCCSC[C@H](NC(=O)CC(C)(C)C)C(=O)O)c1ccc(O)cc1 (stereo partly shown) [Example 19] | 500 | –
6 | – | CC(C)CC(C(=O)N[C@@H](CSSC[C@H](NC(=O)CC(C)(C)C)C(=O)O)C(=O)O)c1ccc(O)cc1 (stereo partly drawn) [Example 62, 3-((2(R)-carboxy-2(R)-(2(R,S)-(4-hydroxyphenyl)-4-methylpentanoylamino)ethyl)disulfanyl)-2(R)-(3,3-dimethylbutanoylamino)propionic acid] | 90 | –
7 | 500 | CC(C)C[C@H](OCc1ccccc1)C(=O)N[C@@H](Cc1ccc(OCC(C)(C)C)cc1)C(=O)O [Example 102, 2(S)-(4-methyl-2(S)-(phenylmethoxy)pentanoylamino)-3-(4-(2,2-dimethylpropoxy)phenyl)propionic acid] | – | –
8 | 1800 | CC(C)CC(NC(=O)CCc1ccc(CC(NC(=O)CC(C)(C)C)C(=O)O)cc1)c1ccc(O)cc1 (stereo not shown) [Example 131, 3-(4-(2-(N-(1-(4-hydroxyphenyl)-3-methylbutyl)carbamoyl)ethyl)phenyl)-2-(3,3-dimethylbutanoylamino)propionic acid] | – | –
9 | 13 | COc1cccc(OC)c1C(=O)NCCCC(NC(=O)c1c(Cl)cccc1Cl)C(=O)O (stereo not shown) [Example 143, 2-((2,6-dichlorophenyl)carbonylamino)-5-((2,6-dimethoxyphenyl)carbonylamino)pentanoic acid] | – | accumulation of eosinophils to auricle induced by application of the antigen (Auricular Edema Model): inhibited; swelling of ear induced by application of the antigen (Auricular Edema Model): inhibited; accumulation of eosinophils to the lung (Mouse Asthma Model; BALF on DAY-31): inhibited; progress of airway anaphylaxis (Mouse Asthma Model; DAY-31): inhibited
10 | 430 | O=C(NC(CCCCC(NC(=O)c1c(Cl)cccc1Cl)C(=O)O)C(=O)O)c1c(Cl)cccc1Cl (stereo not shown) [Example 154, 2,7-bis((2,6-dichlorophenyl)carbonylamino)octanedioic acid] | – | –
11 | – | O=C(O)CCc1ccc(C[C@H](NC(=O)c2c(Cl)cccc2Cl)C(=O)O)cc1 [Example 161, 2(S)-2-((2,6-dichlorophenyl)carbonylamino)-3-(4-(2-carbaxyethyl)phenyl)propionic acid] | 64 | –
12 | 780 | CC(C)C[C@H](NC(=O)Cc1ccc(NC(=O)Nc2ccccc2)cc1)C(=O)N[C@@H](Cc1ccc(CCC(=O)O)cc1)C(=O)O [Example 171, (2S)-2-((2S)-4-methyl-2-(2-(4-((phenylamino)carbonylamino)phenyl)acetylamino)pentanoylamino)-3-(4-(2-carboxyethyl)phenyl)propionic acid] | – | –
13 | 13 | CC(C)C[C@H](NC(=O)Cc1ccc(NC(=O)Nc2ccccc2)cc1)C(=O)N[C@@H](CCSC[C@H](NC(=O)CC(C)(C)C)C(=O)O)C(=O)O [Example 176, 4-((2R)-2-(3,3-dimethylbutanoylamino)-2-carboxyethylthio)-(2S)-2-((2S)-4-methyl-2-(2-(4-((phenylamino)carbonylamino)phenyl)acetylamino)pentanoylamino)butyric acid] | – | –
14 | – | O=C(N[C@@H](CCSC[C@H](NC(=O)c1c(Cl)cccc1Cl)C(=O)O)C(=O)O)c1c(Cl)cccc1Cl [Example 180, 4-((2R)-2-((2,6-dichlorophenyl)carbonylamino)-2-carboxyethylthio) (2S)-2-((2,6-dichlorophenyl)carbonylamino)butyric acid] | – | IC50 ([1]; read-out: Inhibition Activity(IC50 : nM), binding of VLA-4-IgG chimeric protein to immobilized CS-1 peptide, compound preincubated 20 minutes): 38 nM

Row | Compound | IC50 [1, 2] [nM] | IC50 [1] [nM] | also measured
15 | (2R)-3-(((2S)-1-(2-cyclohexylacetyl)pyrrolidin-2-yl)methylthio)-2-(3,3-dimethylbutanoylamino)propionic acid [Example 193] | 2200 | – | –
